The target in the experiment is T1, PKCθ (Homo sapiens, UniProt Q04759).
T1 construct: purchased Invitrogen
T1 sequence (Q04759 whole entry): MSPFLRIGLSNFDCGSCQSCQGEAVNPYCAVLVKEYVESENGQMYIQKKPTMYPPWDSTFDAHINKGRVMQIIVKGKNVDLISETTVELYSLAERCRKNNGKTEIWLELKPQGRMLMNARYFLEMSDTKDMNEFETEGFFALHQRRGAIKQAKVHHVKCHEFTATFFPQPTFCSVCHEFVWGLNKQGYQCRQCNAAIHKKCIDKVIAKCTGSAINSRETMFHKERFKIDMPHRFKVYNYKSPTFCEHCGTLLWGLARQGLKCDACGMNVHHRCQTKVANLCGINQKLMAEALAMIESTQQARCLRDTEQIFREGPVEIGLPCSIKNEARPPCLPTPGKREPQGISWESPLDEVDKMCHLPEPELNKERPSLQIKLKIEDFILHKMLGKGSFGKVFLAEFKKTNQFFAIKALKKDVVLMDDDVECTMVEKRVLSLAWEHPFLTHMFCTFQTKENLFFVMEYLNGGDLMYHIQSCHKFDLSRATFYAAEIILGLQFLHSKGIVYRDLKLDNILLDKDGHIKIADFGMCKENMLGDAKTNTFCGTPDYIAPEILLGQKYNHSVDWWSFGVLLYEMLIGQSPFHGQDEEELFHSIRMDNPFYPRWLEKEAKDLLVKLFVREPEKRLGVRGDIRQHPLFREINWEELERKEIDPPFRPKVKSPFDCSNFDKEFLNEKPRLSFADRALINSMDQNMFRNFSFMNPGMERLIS
The experiment can be described thus: PKCθ IMAP Assay. Format: biochemical. The settings on record: IMAP fluorescence polarization screening assay, 35 μM ATP. As for the experimental part:
The following is an example of an assay that can be used to determine the PKCθ inhibitory activity of a test compound. Reagents are prepared as follows:
Assay Buffer: 50 mM HEPES (pH 7.6), 10 mM MgCl, 0.1 mM EDTA, 5 mM MBP, 0.01% Triton, 1 mM DTT, 0.05 mg/ml phosphatidyl serine, 0.05 mg/ml diacylglycerol.
The final concentration of PKCθ (Invitrogen) is 0.5 nM. The final concentration of substrate (FAM-AKRRRLSSLRA) (Molecular Devices) is 100 nM. The final concentration of ATP in the reaction is 35 μM. The final concentration of DMSO in the reaction is 2.5%.
Enzyme is kept in 5 μl aliquots and stored at −80° C. prior to use. Test compound is allowed to pre-incubate with enzyme for 45 minutes before the reactions is initiated.
The reaction mixture consists of: 5 μl of test compound in 10% DMSO, 5 μl of 400 nM substrate (FAM-AKRRRLSSLRA), 5 μl of […] PKCθ, and 5 μl of 140 μM ATP (ATP is added to the reaction mixture last to initiate the reaction) per well.
The reaction is allowed to proceed for 60 minutes and is terminated by adding 30 μl per well of 90% Progressive A buffer/10% Progressive B buffer and a 1:400 dilution of binding beeds (Molecular Devices).
The reaction is given a binding incubation time of at least 30 minutes prior to reading the fluorescence polarization signal on an Analyst reader (the following detector settings are used: fluorescein excitation-485 nm, fluorescein emission-530 nm, fluorescein dichroic-505 nm).
The IC50 is the concentration that gives 50% inhibition. In the case of `COc1ccccc1-c1cnc2[nH]c(=O)n(C(C)C)c2n1` [Compound 38, 1-isopropyl-6-(2-methoxyphenyl)-1H-imidazo[4,5-b]pyrazin-2(3H)-one], the IC50 was greater than 30 µM.

Compound `COc1ccc(C(C)C)cc1-c1ccc2[nH]c(=O)n([C@H](CO)C(C)C)c2n1` [Compound 39, (S)-3-(1-hydroxy-3-methylbutan-2-yl)-5-(5-isopropyl-2-methoxyphenyl)-1H-imidazo[4,5-b]pyridin-2(3H)-one] had an IC50 greater than 30 µM.

In the case of `CC(c1ccccc1)n1c(=O)[nH]c2ncc(-c3cccc4ncccc34)nc21` (stereo not shown) [Compound 42, 1-(1-phenylethyl)-6-(quinolin-5-yl)-1H-imidazo[4,5-b]pyrazin-2(3H)-one], the IC50 fell in the range of 0.1 to 5 µM.

Consider `O=c1[nH]c2ncc(-c3cccc4ncccc34)nc2n1C(c1ccccc1)c1ccccc1` [Compound 43, 1-benzhydryl-6-(quinolin-5-yl)-1H-imidazo[4,5-b]pyrazin-2(3H)-one], for which the IC50 is greater than 30 µM.

`CC[C@@H](c1ccccc1)n1c(=O)[nH]c2ncc(-c3cccc4ncccc34)nc21` [Compound 44, (S)-1-(1-phenylpropyl)-6-(quinolin-5-yl)-1H-imidazo[4,5-b]pyrazin-2(3H)-one] returned an IC50 greater than 30 µM.

`COc1ccc(C(C)C)cc1-c1cnc2[nH]c(=O)n(C3CCCOC3)c2n1` (stereo not shown) [Compound 46, 6-(5-isopropyl-2-methoxyphenyl)-1-(tetrahydro-2H-pyran-3-yl)-1H-imidazo[4,5-b]pyrazin-2(3H)-one] displayed an IC50 of 10.1 to 20 µM.

Compound `C[C@H](c1ccccc1)n1c(=O)n(C)c2ncc(-c3cccc4ncccc34)nc21` [Compound 48, (R)-1-methyl-3-(1-phenylethyl)-5-(quinolin-5-yl)-1H-imidazo[4,5-b]pyrazin-2(3H)-one] displayed an IC50 greater than 30 µM.

Take `C[C@@H](c1ccccc1)n1c(=O)n(C)c2ncc(-c3cccc4ncccc34)nc21` [Compound 49, (S)-1-methyl-3-(1-phenylethyl)-5-(quinolin-5-yl)-1H-imidazo[4,5-b]pyrazin-2(3H)-one]: the IC50 was greater than 30 µM.

In the case of `C[C@H](c1ccccc1)n1c(=O)[nH]c2ncc(-c3cccc4ncccc34)cc21` [Compound 62, (R)-1-(1-phenylethyl)-6-(quinolin-5-yl)-1H-imidazo[4,5-b]pyridin-2(3H)-one], the IC50 is greater than 30 µM.

`CC(c1ccccc1)n1c(=O)[nH]c2ncc(-c3cccc4ncccc34)cc21` (stereo not shown) [Compound 63, 1-(1-phenylethyl)-6-(quinolin-5-yl)-1H-imidazo[4,5-b]pyridin-2(3H)-one]: the IC50 was greater than 30 µM.

Consider `CC(c1ccc(S(C)(=O)=O)cc1)n1c(=O)[nH]c2ncc(-c3cccc4ncccc34)nc21` (stereo not shown) [Compound 66, 1-(1-(4-(methylsulfonyl)phenyl)ethyl)-6-(quinolin-5-yl)-1H-imidazo[4,5-b]pyrazin-2(3H)-one], for which the IC50 is greater than 30 µM.

As to `CC(c1ccncc1)n1c(=O)[nH]c2ncc(-c3cccc4ncccc34)nc21` (stereo not shown) [Compound 67, 1-(1-(pyridin-4-yl)ethyl)-6-(quinolin-5-yl)-1H-imidazo[4,5-b]pyrazin-2(3H)-one], the IC50 fell in the range of 20.1 to 30 µM.

The compound `O=c1[nH]c2ncc(-c3cccc4ncccc34)nc2n1CC1CCNCC1` [Compound 74, 1-(piperidin-4-ylmethyl)-6-(quinolin-5-yl)-1H-imidazo[4,5-b]pyrazin-2(3H)-one] displayed an IC50 greater than 30 µM.

As for `CC(c1ccccn1)n1c(=O)[nH]c2ncc(-c3cccc4ncccc34)nc21` (stereo not shown) [Compound 75, 1-(1-(pyridin-2-yl)ethyl)-6-(quinolin-5-yl)-1H-imidazo[4,5-b]pyrazin-2(3H)-one], the IC50 is 10.1 to 20 µM.

The compound `CC(c1cccnc1)n1c(=O)[nH]c2ncc(-c3cccc4ncccc34)nc21` (stereo not shown) [Compound 76, 1-(1-(pyridin-3-yl)ethyl)-6-(quinolin-5-yl)-1H-imidazo[4,5-b]pyrazin-2(3H)-one] had an IC50 of 5.1 to 10 µM.

On to `O=c1[nH]c2ncc(-c3cccc4ncccc34)nc2n1C1CCC(CO)CC1` (stereo not shown) [Compound 77, 1-((1s,4s)-4-(hydroxymethyl)cyclohexyl)-6-(quinolin-5-yl)-1H-imidazo[4,5-b]pyrazin-2(3H)-one], for which the IC50 is 20.1 to 30 µM.

The values above are taken from patent publication US7981893B2, “Heteroaryl compounds, compositions thereof, and methods of treatment therewith” (Signal Pharmaceuticals, LLC, priority 2006, dated 2011).
